Data: US8092790B2, “Methods of making formulations to affect insect behavior and/or bird behavior” (Bug Buster, Ltd., priority 2003, dated 2012)
Several values for one entry are separate records, joined by “and”; a condition that tells them apart may be missing. Equal entries are not always repeated.

What was measured:
[1] = system: fruit flies (Drosophila spp.); test: Attraction of fruit flies, sticky trap with treated surface; assay type: in vivo
Description: An exemplary compound, methyl anthranilate, was combined with fatty acid and used to attract insects, in particular, fruit flies (Drosophila spp.). This exemplary compound will also repel at least some birds. […] An exemplary compound, methyl anthranilate, was combined with fatty acid and applied to a surface (e.g., a treated surface) of a sticky trap and used to attract and to trap insects, in particular, fruit flies (Drosophilia spp.). This exemplary compound will also repel at least some birds.
A trial compared insect attraction for an untreated surface of a sticky trap and with a treated surface of a sticky trap.
For example, grape crushing and/or fermenting may release competitive agents.

[2] = system: banded sunflower moth (Cochylis hospes), sunflower seed head larvae; test: Sunflower field application, seed head larvae; assay type: in vivo; details: BIRDSHIELD at 0.006%, approx. two weeks after ASANA; within a minute of application
Description: An insecticide such as ASANA™ (active ingredient esfenvalerate) is suitable for use in controlling banded sunflower moth (Cochylis hospes). An exemplary composition that included an exemplary compound, methyl anthranilate (e.g., BIRDSHIELD™), was applied to sunflowers.
An insecticide, ASANA™, was applied to sunflowers. Approximately two weeks later, an exemplary compound, methyl anthranilate (e.g., BIRDSHIELD™ at 0.006%) was applied to the same sunflowers. […] This behavior caused the larvae to fall off of the flower portions of the sunflowers. In addition, the exemplary compound affected behavior of other insects on the treated sunflowers.

[3] = system: larvae in a laboratory growing medium; test: Application to larvae in laboratory growing medium; assay type: in vivo; details: control group remained in growing medium
Description: Trials involved applying an exemplary compound to larvae in a laboratory growing medium.
An exemplary compound, methyl anthranilate (e.g., BIRDSHIELD™) was applied to insects that were first allowed to adapt to a laboratory environment. A control group of insects were not exposed to the exemplary compound.

[4] = system: house flies (D. melanogater); test: Treated aluminum siding section on building; assay type: in vivo; details: 0.025%
Description: (§1) An exemplary compound, methyl anthranilate (e.g. Bird Shield™) was applied at 0.025% concentration to a three foot by one foot (three square feet) section of aluminum siding (treated section) and compared with a equal sized section of aluminum siding (untreated section) on the side of a building. Approximately 23 to 25 house flies (D. melanogater) had landed and were resting on each section. […] All of the flies on the untreated section remained. […] Twenty-three flies remained on the adjacent untreated section.

[5] = system: house flies; test: Treated aluminum siding section on building; assay type: in vivo, D. melanogater; details: 0.025%, thirty minutes after application
Description: as §1

[6] = system: corn ear worm (Heliothus zea); test: Exemplary compound applied after insecticide, sweet corn; assay type: in vivo
Description: An exemplary compound, methyl anthranilate, was applied to sweet corn after the crop had been treated with an insecticide (e.g., the pyrethrin insecticide WARRIOR™) to control corn ear worm (Heliothus zea). Prior to application of the exemplary compound, few if any larvae, which typically reside in the developing ear, were observed on the ground around the corn stalks.
After applying the exemplary compound, methyl anthranilate, at a concentration of approximately 4.5 oz.

[7] = system: sunflower seed weevils (Smicronyx spp.); test: Comparison to DEET product, drawing weevils out of sunflower heads; assay type: in vivo
Description: DEET is often used by entomologists in standard procedures to draw sunflower seed weevils (Smicronyx spp.) out of the heads of sunflowers. In this trial, DEET was provided in the commercially available product DEEP WOODS OFF™ repellent (S.C. Johnson and Son's, Racine, Wis.), which has approximately 28.5% active ingredient; 1.5% other isomers and 70% inert ingredients. Forty-two flowers were randomly selected from interiors of three fields. One-half of the flowers were sprayed with the DEET containing repellent while the remaining flowers were sprayed with the exemplary compound at a concentration of approximately 0.00312% methyl anthranilate, which was combined with long chained fatty acids. The number of sunflower weevils was recorded.

[8] = system: ant nest; test: Treatment of ant nest; assay type: in vivo; details: diluted form; about 24 hours post-application
Description: An exemplary method includes applying an exemplary compound or an exemplary composition to an insect nest.

[9] = system: ants; test: Treatment of ground to form a boundary; details: in vivo
Description: An exemplary method includes applying an exemplary compound or composition to the ground to thereby discourage insect traffic or deposition of insect semiochemicals. For example, where an exemplary compound is applied to the ground, the ground is not readily further marked by an insect semiochemical. A trial was performed where an exemplary compound (methyl anthranilate) was applied to the ground to form a boundary.

[10] = system: birds; test: Container placed in aircraft hanger; assay type: in vivo; details: 2.5 gallon HDPE container at least partially filled
[11] = system: birds; details: in vivo; cited from earlier work
[12] = system: Aenictus; details: in vivo; cited from earlier work
[13] = system: Camponotus spp.; details: in vivo; cited from earlier work
[14] = system: T. tabaci; details: in vivo; cited from earlier work

SMILES: COC(=O)c1ccccc1N [methyl anthranilate]
- attraction of fruit flies ([1]; combined with fatty acid): attracted fruit flies
- effectiveness in a competitive environment ([1]; grape crushing and/or fermenting may release competitive agents): may be diminished in a competitive environment
- insects on treated surface of sticky trap ([1]; in less than one minute, only a few insects on untreated surface): covered with insects
- appearance of sunflower seed head larvae [2]: began to appear on the surface of the sunflowers
- behavior of exposed insects [3]: emerged quickly from the laboratory growing medium
- flies resting on treated section ([4]; immediately after application): all of the flies departed
- flies on treated section ([4]; one hour after application): no flies were observed trying to land on the treated section
- time flies remained on treated section ([4]; thirty minutes after application): 6 to 8 s
- flies on treated section ([4]; twenty-four hours after application): no flies were observed on the treated section
- flies attempting to land on treated section within a five minute period [5]: approximately 30 flies
- insects on the ground around the corn stalks ([6]; approximately 4.5 oz. (127 g) per acre by aircraft, after WARRIOR treatment): a significant number of insects were observed on the ground
- worms in the corn ears at harvest ([6]; insecticide (WARRIOR) and methyl anthranilate): did not contain any significant number of worms
- Number of insects, Mean ([7]; Field No. 1): 6.8
- Number of insects, Total ([7]; Field No. 1): 68
- Number of insects, Mean ([7]; Field No. 2): 24
- Number of insects, Total ([7]; Field No. 2): 72
- Number of insects ([7]; Field No. 2, per flower, DEET as DEEP WOODS OFF, methyl anthranilate approx. 0.00312% with long chained fatty acids): 23 and 24 and 26
- Number of insects, Mean ([7]; Field No. 3): 8.4
- Number of insects, Total ([7]; Field No. 3): 67
- effectiveness compared with DEET ([7]; approx. 0.00312% methyl anthranilate with long chained fatty acids vs DEET repellent product): generally more effective than DEET
- ant activity at the site of the nest [8]: no ant activity was observed
- crossing of treated ground boundary [9]: ants did not cross this boundary
- bird population in hanger [10]: bird population dwindled
- surface guano on aircraft [10]: significant drop in surface guano
- repellency to birds [11]: exhibit repellency to birds
- semiochemical function for Aenictus [12]: trail semiochemicals
- effect on Camponotus spp. [13]: trigger flight of sexuals from nest
- attraction of T. tabaci [14]: did not attract
